Data set [1] relates to β-glucuronidase in intestinal perfusate. The data set can be described thus: biological stability in blank intestinal perfusate. As to conditions: for effect on hydrolysis of wogonoside in blank intestinal perfusate: wogonoside 20 μM, 0.1 or 4.4 mM saccharolactone, 20 mM gluconolactone.
Data set [2] concerns perfused rat intestine (duodenum, upper jejunum, terminal ileum and colon). Kind of data set: four-site perfused rat intestinal model. The following applies: for effect of co-perfusion on absorption and metabolism of wogonoside: 0.1 mM saccharolactone, 20 mM gluconolactone, or antibiotics (100 units penicillin and 0.1mg streptomycin/mL). The class given is in vivo.
For data set [3] the following is noted: cited from earlier work.
Data set [4] deals with β-glucuronidase in the rat intestine perfusates. Kind of data set: hydrolysis of wogonoside in blank rat intestinal perfusate. The class given is in vitro ADME. As to conditions: for Vmax of wogonoside hydrolysis / Km: blank perfusate; for Km: read-out: Km of wogonoside hydrolysis.
For data set [5], the system named is β-glucuronidase of microbial enzymatic extract (rat feces). Kind of data set: hydrolysis of wogonoside by microbial enzymatic extract from rat feces. It counts as in vitro ADME.
The nature of data set [6]: stability in diluted bile solution. It counts as in vitro ADME, rat. As to conditions: 20 μM, 4-fold diluted bile solution, 37°C.
The target in data set [7] is T1, β-glucuronidase derived from intestinal S9 fraction (Rattus norvegicus, UniProt P06760).
T1 sequence (P06760 23-648): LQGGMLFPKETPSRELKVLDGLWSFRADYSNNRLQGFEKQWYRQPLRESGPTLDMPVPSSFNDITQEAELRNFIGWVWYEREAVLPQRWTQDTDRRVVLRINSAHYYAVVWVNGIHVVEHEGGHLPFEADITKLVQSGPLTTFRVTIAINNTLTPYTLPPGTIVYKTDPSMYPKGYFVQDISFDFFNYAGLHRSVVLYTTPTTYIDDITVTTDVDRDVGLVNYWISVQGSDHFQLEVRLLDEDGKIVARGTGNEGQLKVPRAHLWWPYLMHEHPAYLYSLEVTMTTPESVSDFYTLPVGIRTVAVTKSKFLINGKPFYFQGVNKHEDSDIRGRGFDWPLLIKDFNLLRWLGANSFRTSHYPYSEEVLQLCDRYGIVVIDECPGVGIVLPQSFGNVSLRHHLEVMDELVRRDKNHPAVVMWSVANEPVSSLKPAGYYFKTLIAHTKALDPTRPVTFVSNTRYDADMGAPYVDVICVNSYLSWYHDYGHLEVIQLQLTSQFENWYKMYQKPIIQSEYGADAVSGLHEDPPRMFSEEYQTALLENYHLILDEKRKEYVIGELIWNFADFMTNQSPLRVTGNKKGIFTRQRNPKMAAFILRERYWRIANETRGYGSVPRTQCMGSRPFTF
The data set can be described thus: hydrolysis of wogonoside by rat intestine S9 fractions. The class given is in vitro ADME. As to conditions: for Km: read-out: Km of wogonoside hydrolysis.

The nature of data set [8]: chemical stability of wogonoside. It counts as physicochemical.

Results on four molecules are retold here after publication PMC3953453 (Molecular pharmaceutics, 2012).

Like-named read-outs stand apart in the source and are kept apart here.

On to `O=C1O[C@H](CO)[C@@H](O)[C@H](O)[C@H]1O` [gluconolactone, reference compound], for which, in data set [1], the “effect on hydrolysis of wogonoside in blank intestinal perfusate” value is given as “did not inhibit the hydrolysis of wogonoside”. Moreover, the “effect of co-perfusion on absorption and metabolism of wogonoside” value in data set [2] is recorded as “did not affect its absorption”.

As for `Oc1ccc(/C=C/c2cc(O)cc(O)c2)cc1` [resveratrol], the bioavailability in data set [3] was < 5%.

As for `O=C(O)[C@@H](O)[C@H]1OC(=O)[C@H](O)[C@H]1O` [saccharolactone], the “effect on hydrolysis of wogonoside in blank intestinal perfusate” value in data set [1] was “inhibit the hydrolysis of wogonoside in all perfusate”. Further, the “effect of co-perfusion on absorption and metabolism of wogonoside” value in data set [2] is “affected both absorption and metabolism of wogonoside”. Besides, the “effect of co-perfusion on absorption and metabolism of wogonin” value in data set [2] (co-perfused with 0.1 mM saccharolactone) is given as “did not affect the absorption or metabolism of wogonin”.

Consider `COc1c(O[C@@H]2O[C@H](C(=O)O)[C@@H](O)[C@H](O)[C@H]2O)cc(O)c2c(=O)cc(-c3ccccc3)oc12` [wogonoside, wogonin-7-O-glucuronide], for which the maximal hydrolysis rate came out at 1.559 ± 0.008 nmol/min/mg in data set [4] (blank jejunal perfusate, pH 4.5, wogonoside 20μM) and 5.195 ± 0.103 nmol/min/mg in data set [7] (jejunal S9 fraction, pH 4.5, wogonoside 20μM). Moreover, the “Vmax of wogonoside hydrolysis” value in data set [4] (Col 60-90min) came to 0.15 nmol/min/mg; in data set [4] (Duo 60-90min) it was 0.15 nmol/min/mg; in data set [4] (Ile 60-90min), 0.85 nmol/min/mg; in data set [4] (Ile 120-150min) it was 0.30 nmol/min/mg; in data set [4] (Jej 0-30min), 1.84 nmol/min/mg; in data set [4] (Jej 30-60min) it was 0.93 nmol/min/mg. The “Vmax of wogonoside hydrolysis” value in data set [4] (Jej 60-90min) stood at 0.47 nmol/min/mg; in data set [4] (Jej 90-120min) it was 0.37 nmol/min/mg; in data set [4] (Jej 120-150min), 0.18 nmol/min/mg; in data set [5] (Microflora enzymatic extract), 49.64 nmol/min/mg; in data set [7] (Duo S9 fraction), 2.06 nmol/min/mg; in data set [7] (Ile S9 fraction) it was 0.26 nmol/min/mg. In addition, the “Vmax of wogonoside hydrolysis” value in data set [7] (Jeu S9 fraction) worked out at 1.68 nmol/min/mg. The Michaelis-Menten constant (Km) in data set [4] (Col 60-90min) was found to be 19.7 µM; in data set [4] (Duo 60-90min) it was 19.9 µM; in data set [4] (Ile 60-90min) it was 6.33 µM; in data set [4] (Ile 120-150min), 6.96 µM; in data set [4] (Jej 0-30min), 19.8 µM; in data set [4] (Jej 30-60min) it was 15.8 µM. In addition, the Michaelis-Menten constant (Km) in data set [4] (Jej 60-90min) came out at 18.7 µM; in data set [4] (Jej 90-120min) it was 17 µM; in data set [4] (Jej 120-150min), 25.5 µM; in data set [5] (read-out: Km of wogonoside hydrolysis, Microflora enzymatic extract), 7.7 µM; in data set [7] (Duo S9 fraction), 30 µM; in data set [7] (Ile S9 fraction), 25.7 µM. Moreover, in data set [7] (Jeu S9 fraction), the Michaelis constant (Km) amounted to 28.2 µM. The “stability in blank intestinal perfusate” value in data set [1] (blank perfusate of duodenum, jejunum, ileum, colon, 37°C, up to 8 h) is on record as “unstable”. The “stability in blank intestinal perfusate after removal of bacteria” value in data set [1] (centrifugation (13,000 rpm, 30 min) and aseptic filtration, 20 μM) is on record as “did not improve stability of wogonoside”. The molecule also came in with a highest hydrolysis rate in data set [5] (fecal extract, pH 5.5, wogonoside 20μM) of 249.211 ± 0.178 nmol/min/mg. The “metabolite found in perfusate (interconversion)” value in data set [2] (5 μM and 20 μM perfused) is “significant amounts of wogonin were recovered in the wogonoside perfusate”. Further, the intestinal absorption entry in data set [2] (5 μM and 20 μM, four segments) is on record as “slower in every intestine regions when compared to wogonin”. Besides, the stability in bile result in data set [6] is on record as “fairly stable”. The “optimal pH of glucuronidase activity” value in data set [7] (jejunal S9 fraction, wogonoside 20μM, 37°C, 30 min) is given as 4.5. For the same molecule, the chemical stability entry in data set [8] (pH 5.5, pH 6.5 and pH 7.4, 37°C) is reported as “chemically stable”. Also, in data set [8] (pH 5.5, pH 6.5 and pH 7.4, 8 h incubation at 37°C), the “recovery (chemical stability)” value is recorded as 104%-106%.
